Experimental findings from patent US11897867B2, “6-phenyl-4,5-dihydropyridazin-3(2H)-one derivatives as PDE3A and PDE3B inhibitors for treating cancer” (Bayer Aktiengesellschaft, priority 2017, dated 2024) are described below.

In one experiment the target is T1, human full length PDE3B (Homo sapiens, UniProt Q13370).
T1 construct: Sf9 cells overexpressing human full length PDE3B; purchased SB Drug Discovery, UK; host or cells: Sf9 cells (cell extract)
As to the kind of experiment: PDE3B enzyme inhibition (3H-cAMP Scintillation Proximity Assay). The experiment is classed as biochemical. As to conditions: PDE3B cell extract from Sf9 cells, 60 min room temperature; read-out: Target IC50 PDE3B IC50. Here is the method: The commercially available 3H-cAMP Scintillation Proximity Assay (SPA, Perkin Elmer) system was used for enzyme inhibition studies. For the determination of the in vitro effect of test substances on the PDE3B reactions 2 μl of the respective test compound solution in DMSO (serial dilutions) were placed in wells of microtiter plates (Isoplate-96/200W; Perkin Elmer). 50 μl of a dilution of PDE3B cell extract from Sf9 cells overexpressing human full length PDE3B (SB Drug Discovery, UK) in buffer A (50 mM Tris/HCl pH 7.5, 8.3 mM MgCl2, 1.7 mM EDTA, 0.2% BSA) was added. The dilution of the PDE3B cell extract was chosen such that the reaction kinetics was linear and less than 70% of the substrate was consumed (typical dilution 1:6000). The reaction was started by addition of 50 μl (0.025 μCi) of 1:2000 in buffer A w/o BSA diluted substrate [8-3H] adenosine 3′,5′-cyclic phosphate (1 μCi/μl; Perkin Elmer). After incubation at room temperature for 60 min, the reaction was stopped by addition of 25 μl of a suspension containing 18 mg/ml yttrium scintillation proximity beads (Perkin Elmer) in water. The microtiter plates were sealed and measured in a Microbeta scintillation counter (PerkinElmer Wallac). IC50 values were determined from sigmoidal curves by plotting percentage PDE3B activity vs log compound concentration.
In general terms: SPA uses beads or plates that emit light when radiolabelled molecules are held near them.

A further experiment has as its system SK-MEL-3 (melanoma). As to the kind of experiment: Cell proliferation measurement (Cell Titer Glo), SK-MEL-3. The experiment is classed as cell-based. As to conditions: Homo sapiens, SK-MEL3, SK-MEL-3 cells, 72 h treatment, read-out: Anti-proliferation IC50 SK-MEL-3 (melanoma). Here is the method: (§1) The antiproliferative activity of the compounds of the general formula (I) was examined in vitro in human cancer cells. For this purpose, 1000 cells (or 500 HeLa cells) were plated in 384-well plates with appropriate growth medium and incubated at 37° C. overnight. After 24 h, the cells on the test plate were treated with the compounds of the general formula (I) as and incubated at 37° C. for 72 h. The compounds were added to the cells by means of an HP D300 digital dispenser in a 10 (or more)-step dilution series. As control, the cells were treated with vehicle (DMSO at 0.3% final concentration). After 72 h, the cells were treated with 20 μl/well of 50% CTG solution in PBS (Promega Cell Titer Glo (catalogue #G755B and G756B)) and incubated at room temperature for 10 min, and luminescence was measured by means of a VICTOR V (Perkin Elmer), in order to determine cell viability at the end of treatment. The percentage effect on cell growth and the IC50 derived therefrom were determined for each test substance using the values from untreated wells (=percent viability). The IC50 values were calculated using a 4-parameter fit.
In general terms: In ATP-based viability assays light output follows the ATP content of the culture.

Another experiment has as its target T2, human full length PDE3A (Homo sapiens, UniProt Q14432).
T2 construct: Sf9 cells overexpressing human full length PDE3A; purchased SB Drug Discovery, UK; host or cells: Sf9 cells (cell extract)
Briefly: PDE3A enzyme inhibition (3H-cAMP Scintillation Proximity Assay). The experiment is classed as biochemical. As to conditions: PDE3A cell extract from Sf9 cells, 60 min room temperature; read-out: Target IC50 PDE3A IC50. Here is the method: The commercially available 3H-cAMP Scintillation Proximity Assay (SPA, Perkin Elmer) system was used for enzyme inhibition studies. For the determination of the in vitro effect of test substances on the PDE3A reactions 2 μl of the respective test compound solution in DMSO (serial dilutions) were is placed in wells of microtiter plates (Isoplate-96/200W; Perkin Elmer). 50 μl of a dilution of PDE3A cell extract from Sf9 cells overexpressing human full length PDE3A (SB Drug Discovery, UK) in buffer A (50 mM Tris/HCl pH 7.5, 8.3 mM MgCl2, 1.7 mM EDTA, 0.2% BSA) was added. The dilution of the PDE3A cell extract was chosen such that the reaction kinetics was linear and less than 70% of the substrate was consumed (typical dilution 1:5000). The reaction was started by addition of 50 μl (0.025 μCi) of 1:2000 in buffer A w/o BSA diluted substrate [8-3H] adenosine 3′,5′-cyclic phosphate (1 μCi/μl; Perkin Elmer). After incubation at room temperature for 60 min, the reaction was stopped by addition of 25 μl of a suspension containing 18 mg/ml yttrium scintillation proximity beads (Perkin Elmer) in water. The microtiter plates were sealed and measured in a Microbeta scintillation counter (PerkinElmer Wallac). IC50 values were determined from sigmoidal curves by plotting percentage PDE3A activity vs log compound concentration.

The subject of experiment [1] is HeLa cells (cervical cancer). As to the kind of experiment: Cell proliferation measurement (Cell Titer Glo), HeLa. The experiment is classed as cell-based. As to conditions: Homo sapiens, 72 h treatment, read-out: Anti-proliferation IC50 HeLa (Cervical cancer). Here is the method:
as §1

Some results are limits rather than exact numbers.

T2 sequence (Q14432 whole entry): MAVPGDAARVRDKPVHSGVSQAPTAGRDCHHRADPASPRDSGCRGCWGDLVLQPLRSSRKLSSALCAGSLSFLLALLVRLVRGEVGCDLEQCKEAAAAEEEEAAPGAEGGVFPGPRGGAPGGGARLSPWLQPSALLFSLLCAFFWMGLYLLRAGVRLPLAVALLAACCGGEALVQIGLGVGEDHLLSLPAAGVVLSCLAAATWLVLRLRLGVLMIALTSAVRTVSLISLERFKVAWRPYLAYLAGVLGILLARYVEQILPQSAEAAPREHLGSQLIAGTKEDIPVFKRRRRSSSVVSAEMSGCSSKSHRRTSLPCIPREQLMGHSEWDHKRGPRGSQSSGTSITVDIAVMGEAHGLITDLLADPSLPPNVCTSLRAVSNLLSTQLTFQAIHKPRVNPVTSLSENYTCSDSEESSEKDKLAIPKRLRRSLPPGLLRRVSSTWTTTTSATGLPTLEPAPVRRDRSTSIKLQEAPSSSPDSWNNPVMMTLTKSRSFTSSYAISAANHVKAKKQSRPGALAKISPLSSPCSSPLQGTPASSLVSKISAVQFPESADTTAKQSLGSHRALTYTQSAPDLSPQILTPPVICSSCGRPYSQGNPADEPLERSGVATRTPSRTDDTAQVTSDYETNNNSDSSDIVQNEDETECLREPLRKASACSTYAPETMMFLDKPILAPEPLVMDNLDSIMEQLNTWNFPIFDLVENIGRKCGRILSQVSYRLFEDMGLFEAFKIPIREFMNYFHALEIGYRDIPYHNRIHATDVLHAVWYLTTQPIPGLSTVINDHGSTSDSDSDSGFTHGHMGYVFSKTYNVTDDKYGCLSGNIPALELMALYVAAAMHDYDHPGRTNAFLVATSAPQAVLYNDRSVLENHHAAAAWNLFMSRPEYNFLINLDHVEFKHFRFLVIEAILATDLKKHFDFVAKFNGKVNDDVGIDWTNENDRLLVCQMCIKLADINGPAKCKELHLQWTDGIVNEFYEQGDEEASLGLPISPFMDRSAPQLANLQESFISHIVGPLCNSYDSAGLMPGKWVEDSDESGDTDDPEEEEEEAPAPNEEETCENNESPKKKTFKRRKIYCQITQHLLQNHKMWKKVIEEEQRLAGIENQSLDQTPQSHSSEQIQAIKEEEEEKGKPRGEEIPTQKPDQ
T1 sequence (Q13370 whole entry): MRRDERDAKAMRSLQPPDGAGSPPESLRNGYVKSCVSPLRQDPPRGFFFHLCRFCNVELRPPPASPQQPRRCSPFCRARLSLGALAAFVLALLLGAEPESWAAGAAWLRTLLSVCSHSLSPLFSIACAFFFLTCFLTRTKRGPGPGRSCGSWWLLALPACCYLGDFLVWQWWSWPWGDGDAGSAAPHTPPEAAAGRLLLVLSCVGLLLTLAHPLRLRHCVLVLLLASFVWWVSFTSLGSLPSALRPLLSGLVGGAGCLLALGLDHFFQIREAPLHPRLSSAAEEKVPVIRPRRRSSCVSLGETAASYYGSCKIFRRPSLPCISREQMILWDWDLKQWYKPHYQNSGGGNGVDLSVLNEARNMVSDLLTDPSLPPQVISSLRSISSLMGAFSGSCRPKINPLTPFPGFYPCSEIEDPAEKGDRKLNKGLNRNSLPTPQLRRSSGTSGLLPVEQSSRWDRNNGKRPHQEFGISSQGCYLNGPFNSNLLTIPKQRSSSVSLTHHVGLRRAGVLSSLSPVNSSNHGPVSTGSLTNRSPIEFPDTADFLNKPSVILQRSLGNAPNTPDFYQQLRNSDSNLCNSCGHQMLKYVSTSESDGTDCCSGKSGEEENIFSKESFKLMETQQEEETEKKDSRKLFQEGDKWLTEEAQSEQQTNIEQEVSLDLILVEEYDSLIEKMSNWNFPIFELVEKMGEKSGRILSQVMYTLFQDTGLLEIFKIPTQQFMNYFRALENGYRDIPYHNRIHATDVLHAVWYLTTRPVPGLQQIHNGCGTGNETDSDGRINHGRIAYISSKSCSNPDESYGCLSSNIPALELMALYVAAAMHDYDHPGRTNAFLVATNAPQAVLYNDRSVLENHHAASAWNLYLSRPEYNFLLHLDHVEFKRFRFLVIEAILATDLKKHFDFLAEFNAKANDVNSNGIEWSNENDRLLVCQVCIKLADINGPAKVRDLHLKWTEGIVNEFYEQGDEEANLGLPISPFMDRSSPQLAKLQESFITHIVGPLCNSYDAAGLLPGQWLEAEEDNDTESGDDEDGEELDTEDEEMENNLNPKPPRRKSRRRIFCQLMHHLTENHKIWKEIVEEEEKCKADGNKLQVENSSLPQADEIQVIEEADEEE

For `C/C=C(\C)c1ccc(C2=NNC(=O)CC2)cc1F` [Example 36, 6-{4-[(2E)-but-2-en-2-yl]-3-fluorophenyl}-4,5-dihydropyridazin-3(2H)-one], the IC50 amounted to 390 nM at human full length PDE3B, 14.3 nM in the experiment with SK-MEL-3 (melanoma), 420 nM on human full length PDE3A and 8.33 nM in experiment [1].
Consider `Cc1ccc(-c2ccc(C3=NNC(=O)CC3)cc2F)c(F)c1` [Example 37, 6-(2,2′-difluoro-4′-methyl[1,1′-biphenyl]-4-yl)-4,5-dihydropyridazin-3(2H)-one], for which the IC50 was found to be 100 nM at human full length PDE3B, 7.31 nM in the experiment with SK-MEL-3 (melanoma), 130 nM on human full length PDE3A and 4 nM in experiment [1].
Taken in the same sequence, the figures for `O=C1CCC(c2ccc(-c3cc(F)c(F)cc3F)c(F)c2)=NN1` [Example 38, 6-(2,2′,4′,5′-tetrafluoro[1,1′-biphenyl]-4-yl)-4,5-dihydropyridazin-3(2H)-one] were 100 nM, 11.1 nM, 100 nM and 5.59 nM.
On the same counts, the results for `O=C1CCC(c2ccc(-c3ccc(F)c(F)c3F)c(F)c2)=NN1` [Example 39, 6-(2,2′,3′,4′-tetrafluoro[1,1′-biphenyl]-4-yl)-4,5-dihydropyridazin-3(2H)-one] are 80 nM, 8.4 nM, 82 nM and 5.25 nM.
On the same counts, the results for `O=C1CCC(c2ccc(-c3cncnc3)c(F)c2)=NN1` [Example 40, 6-[3-fluoro-4-(pyrimidin-5-yl)phenyl]-4,5-dihydropyridazin-3(2H)-one] are 140 nM, 47.6 nM, 140 nM and 37.5 nM.
On to `COc1ccc(OC)c(-c2ccc(C3=NNC(=O)CC3)cc2F)c1` [Example 41, 6-(2-fluoro-2′,5′-dimethoxy[1,1′-biphenyl]-4-yl)-4,5-dihydropyridazin-3(2H)-one], for which the IC50 came out at 100 nM at human full length PDE3B, 68.8 nM in the experiment on SK-MEL-3 (melanoma), 150 nM at human full length PDE3A and 51.6 nM in experiment [1].
Taken in the same sequence, the figures for `O=C1CCC(c2ccc(-c3cc(F)ccc3F)c(F)c2)=NN1` [Example 42, 6-(2,2′,5′-trifluoro[1,1′-biphenyl]-4-yl)-4,5-dihydropyridazin-3(2H)-one] were 68 nM, 8.4 nM, 80 nM and 5.23 nM.
Consider `Nc1ccc(F)cc1-c1ccc(C2=NNC(=O)CC2)cc1F` [Example 43, 6-(2′-amino-2,5′-difluoro[1,1′-biphenyl]-4-yl)-4,5-dihydropyridazin-3(2H)-one], for which the IC50 was found to be 110 nM at human full length PDE3B, 26.3 nM in the experiment with SK-MEL-3 (melanoma), 110 nM at human full length PDE3A and 15.3 nM in experiment [1].
In the case of `O=C1CCC(c2ccc(-c3ccccc3OC(F)(F)F)c(F)c2)=NN1` [Example 44, 6-[2-fluoro-2′-(trifluoromethoxy)[1,1′-biphenyl]-4-yl]-4,5-dihydropyridazin-3(2H)-one], the IC50 on human full length PDE3B worked out at 95 nM; in the experiment with SK-MEL-3 (melanoma), 34.5 nM; on human full length PDE3A, 180 nM; in experiment [1] it was 17.9 nM.
Taken in the same sequence, the figures for `O=C1CCC(c2ccc(-c3ccoc3)c(F)c2)=NN1` [Example 45, 6-[3-fluoro-4-(furan-3-yl)phenyl]-4,5-dihydropyridazin-3(2H)-one] were 310 nM, 13.7 nM, 370 nM and 10.4 nM.
On the same counts, the results for `N#Cc1ccc(-c2ccc(C3=NNC(=O)CC3)cc2F)cc1` [Example 46, 2′-fluoro-4′-(6-oxo-1,4,5,6-tetrahydropyridazin-3-yl)[1,1′-biphenyl]-4-carbonitrile] are 37 nM, 12.7 nM, 61 nM and 9.65 nM.
On the same counts, the results for `N#Cc1cccc(-c2ccc(C3=NNC(=O)CC3)cc2F)c1` [Example 47, 2′-fluoro-4′-(6-oxo-1,4,5,6-tetrahydropyridazin-3-yl)[1,1′-biphenyl]-3-carbonitrile] are 96 nM, 19.3 nM, 95 nM and 13.7 nM.
Turning to `Cc1ccc(-c2ccc(C3=NNC(=O)CC3)cc2F)cc1N` [Example 48, 6-(3′-amino-2-fluoro-4′-methyl[1,1′-biphenyl]-4-yl)-4,5-dihydropyridazin-3(2H)-one], the IC50 was 260 nM on human full length PDE3B, 20.9 nM in the experiment with SK-MEL-3 (melanoma), 230 nM at human full length PDE3A and 13.1 nM in experiment [1].
Taken in the same sequence, the figures for `O=C1CCC(c2ccc(-c3cccc(O)c3)c(F)c2)=NN1` [Example 49, 6-(2-fluoro-3′-hydroxy[1,1′-biphenyl]-4-yl)-4,5-dihydropyridazin-3(2H)-one] were 41 nM, 8.88 nM, 63 nM and 40.6 nM.
Taken in the same sequence, the figures for `O=C1CCC(c2ccc(-c3ccccc3O)c(F)c2)=NN1` [Example 50, 6-(2-fluoro-2′-hydroxy[1,1′-biphenyl]-4-yl)-4,5-dihydropyridazin-3(2H)-one] were 130 nM, 4.03 nM, 130 nM and 2.83 nM.
On the same counts, the results for `O=C1CCC(c2ccc(-c3ccc(F)c(F)c3)c(F)c2)=NN1` [Example 51, 6-(2,3′,4′-trifluoro[1,1′-biphenyl]-4-yl)-4,5-dihydropyridazin-3(2H)-one] are 92 nM, 9.51 nM, 120 nM and 5.26 nM.
On to `CCOc1ccccc1-c1ccc(C2=NNC(=O)CC2)cc1F` [Example 52, 6-(2′-ethoxy-2-fluoro[1,1′-biphenyl]-4-yl)-4,5-dihydropyridazin-3(2H)-one], for which the IC50 is 65 nM on human full length PDE3B, > 100 nM in the experiment on SK-MEL-3 (melanoma), 95 nM on human full length PDE3A and 66.8 nM in experiment [1].
`O=C1CCC(c2ccc(-c3cccc(F)c3F)c(F)c2)=NN1` [Example 53, 6-(2,2′,3′-trifluoro[1,1′-biphenyl]-4-yl)-4,5-dihydropyridazin-3(2H)-one]: the IC50 on human full length PDE3B is 34 nM; with SK-MEL-3 (melanoma), 6.78 nM; at human full length PDE3A, 68 nM; in experiment [1], 3.82 nM.
Taken in the same sequence, the figures for `O=C1CCC(c2ccc(-c3cc(F)cc(F)c3)c(F)c2)=NN1` [Example 54, 6-(2,3′,5′-trifluoro[1,1′-biphenyl]-4-yl)-4,5-dihydropyridazin-3(2H)-one] were 380 nM, 37.8 nM, 190 nM and 18.5 nM.
On the same counts, the results for `O=C1CCC(c2ccc(-c3ccc(F)cc3F)c(F)c2)=NN1` [Example 55, 6-(2,2′,4′-trifluoro[1,1′-biphenyl]-4-yl)-4,5-dihydropyridazin-3(2H)-one] are 62 nM, 3.39 nM, 50 nM and 1.96 nM.
